Values quoted from earlier work in US20230404934A1, “ON DEMAND AND LONG-TERM DRUG DELIVERY FROM DEGRADABLE NANOCAPSULES” (University of Maryland, Baltimore County, priority 2020, published 2023).

Conditions: topical to the eye

washout from the eye after topical administration: washes out very quickly, within minutes
Compound: Cc1ccc(=O)n(-c2ccccc2)c1 [pirfenidone, 5-methyl-1-phenylpyridin-2-one]
amount in the back of the eye after topical administration: no measurable amounts in the back of the eye
